Experimental data as given in paper PMC9069370, “Integrated Design of a Membrane‐Lytic Peptide‐Based Intravenous Nanotherapeutic Suppresses Triple‐Negative Breast Cancer” (Advanced Science, 2022).
Square brackets hold non-standard residues; d marks the D form. Peptide text beside a SMILES is read from it.

Tests used:
[1] = Tryptophan fluorescent binding assay; details: tryptophan fluorescence; 50 µM peptide, lipid titrated 0-5000 µM; phosphate buffered saline 1X, pH 7.4; values as lipid per peptide
Method: 50 µM ACP peptides and varied concentrations (concentrations: 0, 25, 50, 100, 150, 200, 250, 500, 1250, and 2500 µM) of POPC or POPC:POPG (3:1 ratio) large unilamellar vesicles were prepared in 10 mM phosphate buffer (pH 7.0). The solutions were measured after 1 h of incubation. Excitation was fixed at 280 nm (slit 9 nm) and emission was collected from 300 to 450 nm (slit 9 nm). The spectra were recorded using Cytation 5 Cell Imaging Multi‐Mode Reader from BioTek and were averaged by three scans.
Lipid Concentration-induced
Name Sequence† 50% Peptide Binding (L/P)
Extended Data Table 3 | Tryptophan binding assay. […]
peptide binding onto liposome. 50 µM peptides were fixed and incubated with titrated lipid (POPC vesicle […]
phosphate buffered saline (1X, pH 7.4). The lipid concentration that causes 50 % peptide binding was determined using tryptophan fluorescent binding assay and the values are shown as lipid per peptide.

[2] = test system: HEK293T; experiment: cells; assay type: cell-based, human; details: 72 h
[3] = test system: MCF‐10A; experiment: cells; assay type: cell-based, human; details: for IC50: 72 h; for selectivity for cancerous cells over non‐tumorigenic MCF‐10A: 2D culture, ratio of IC50
From the text: (§1) […], and MCF-10A cells were maintained in MEGM with supplements and growth factors bovine pituitary extract, hydrocortisone, human epidermal growth factor, insulin, and gentamicin/amphotericin-B.

[4] = test system: HMLER; experiment: cells; assay type: cell-based, human; details: 72 h
From the text: as §1

[5] = test system: HMLER‐shEcad; experiment: cells; assay type: cell-based, human; details: 72 h
From the text: as §1

[6] = test system: U2OS; assay type: cell-based, human; details: 72 h
[7] = ANTS/DPX liposome leakage assay; details: for Peptide Concentration-induced 50 % ANTS/DPX leakage at pH 4.8 (L/P), 3POPC/1POPG Vesicle / Peptide Concentration-induced 50 % ANTS/DPX leakage at pH 4.8 (L/P), POPC Vesicle / Peptide Concentration-induced 50 % ANTS/DPX leakage at pH 7.4 (L/P), 3POPC/1POPG Vesicle / Peptide Concentration-induced 50 % ANTS/DPX leakage at pH 7.4 (L/P), POPC Vesicle: 0.5 mM vesicles, peptide 0-20 µM, 3 h incubation, lipid per peptide; for Peptide Concentration-induced 50 % ANTS/DPX leakage at pH 4.8 (L/P), 3POPC/1POPG Vesicle / Peptide Concentration-induced 50 % ANTS/DPX leakage at pH 4.8 (L/P), POPC Vesicle: HCl-adjusted PBS 1X pH 4.8; for Peptide Concentration-induced 50 % ANTS/DPX leakage at pH 7.4 (L/P), 3POPC/1POPG Vesicle / Peptide Concentration-induced 50 % ANTS/DPX leakage at pH 7.4 (L/P), POPC Vesicle: PBS 1X pH 7.4, high ratio = more potent; for change of ANTS/DPX dye leakage / liposome selectivity at pH 4.8: pH = 4.8 compared with physiological pH, anionic versus neutral liposomes
Method: Vesicle preparation: 5 mM ANTS and 12.5 mM DPX were entrapped in 0.1 µm diameter extruded vesicles (either POPC or POPC/POPG at a ratio of 3:1) with lipids. Gel filtration chromatography of Sephadex G‐100 was used to remove external free ANTS/DPX from LUVs with entrapped contents. LUVs were diluted to 0.5 mM and used to measure the leakage activity by the addition of aliquots of ACPs. Leakage was measured after 3 h incubation. 10% Triton was used as the positive control to measure the maximum leakage of the vesicle. Fluorescence emission spectra were recorded using excitation and emission wavelength of 350 and 510 nm for ANTS/DPX using a BioTek Synergy H1 Hybrid Multi‐Mode Reader.
Peptide Concentration-induced Peptide Concentration-induced
Name Sequence† 50 % ANTS/DPX leakage 50 % ANTS/DPX leakage at pH 7.4 (L/P) at pH 4.8 (L/P)
POPC Vesicle 3POPC/1POPG Vesicle POPC Vesicle 3POPC/1POPG Vesicle […]
Extended Data Table 4 | Peptide concentration-induced 50 % ANTS/DPX liposome leakage. 0.5 mM POPC and 3POPC/1POPG vesicles were fixed and incubated with titrated peptide concentration (0, 0.02, […]
hydrochloric acid-adjusted phoshate buffered saline (1X, pH 4.8). The values are shown as lipid per

| Compound | Lipid Concentration-induced 50% Peptide Binding (L/P), 3POPC/1POPG Vesicle [1] [L/P] | Lipid Concentration-induced 50% Peptide Binding (L/P), POPC Vesicle [1] [L/P] | IC50 [2] [µM] | IC50 [3] [µM] | IC50 [4] [µM] | IC50 [5] [µM] | IC50 [6] [µM] | Peptide Concentration-induced 50 % ANTS/DPX leakage at pH 4.8 (L/P), 3POPC/1POPG Vesicle [7] [L/P] | Peptide Concentration-induced 50 % ANTS/DPX leakage at pH 4.8 (L/P), POPC Vesicle [7] [L/P] | Peptide Concentration-induced 50 % ANTS/DPX leakage at pH 7.4 (L/P), 3POPC/1POPG Vesicle [7] [L/P] | Peptide Concentration-induced 50 % ANTS/DPX leakage at pH 7.4 (L/P), POPC Vesicle [7] [L/P] | selectivity for cancerous cells over non‐tumorigenic MCF‐10A [3] [fold] | change of ANTS/DPX dye leakage / liposome selectivity at pH 4.8 [7] |
| --- | --- | --- | --- | --- | --- | --- | --- | --- | --- | --- | --- | --- | --- |
| CC(C)C[C@H](NC(=O)CN)C(=O)N[C@@H](CC(C)C)C(=O)N[C@@H](CC(=O)O)C(=O)N[C@@H](CC(C)C)C(=O)N[C@@H](CC(C)C)C(=O)N[C@@H](CCC(=O)O)C(=O)N[C@@H](CC(C)C)C(=O)N[C@@H](CC(C)C)C(=O)N[C@@H](CC(C)C)C(=O)N[C@@H](CCC(=O)O)C(=O)N[C@@H](C)C(=O)N[C@@H](C)C(=O)NCC(=O)N[C@@H](Cc1c[nH]c2ccccc12)C(N)=O [DEE] (H-GLLDLLELLLEAAGW-NH2) | 0.38 | 0.63 | 9.91 ± 0.44 | 8.4 ± 1.56 | 5.55 ± 0.35 | 6.05 ± 2.76 | 61 ± 1.41 | 164 | 110 | 597 | 644 | – | – |
| CC(C)C[C@H](NC(=O)CN)C(=O)N[C@@H](CC(C)C)C(=O)N[C@@H](CC(=O)O)C(=O)N[C@@H](CC(C)C)C(=O)N[C@@H](CC(C)C)C(=O)N[C@@H](CCC(=O)O)C(=O)N[C@@H](CC(C)C)C(=O)N[C@@H](CC(C)C)C(=O)N[C@@H](CC(C)C)C(=O)N[C@@H](Cc1c[nH]cn1)C(=O)N[C@@H](C)C(=O)N[C@@H](C)C(=O)NCC(=O)N[C@@H](Cc1c[nH]c2ccccc12)C(N)=O [DEH] (H-GLLDLLELLLHAAGW-NH2) | 1.50 | 0.75 | 10.5 ± 4.67 | 20.2 ± 6.72 | 5.35 ± 1.91 | 3.6 ± 0.42 | 36.5 ± 3.92 | 193 | 63 | 548 | 620 | – | – |
| CC(C)C[C@H](NC(=O)CN)C(=O)N[C@@H](CC(C)C)C(=O)N[C@@H](CC(=O)O)C(=O)N[C@@H](CC(C)C)C(=O)N[C@@H](CC(C)C)C(=O)N[C@@H](Cc1c[nH]cn1)C(=O)N[C@@H](CC(C)C)C(=O)N[C@@H](CC(C)C)C(=O)N[C@@H](CC(C)C)C(=O)N[C@@H](CCC(=O)O)C(=O)N[C@@H](C)C(=O)N[C@@H](C)C(=O)NCC(=O)N[C@@H](Cc1c[nH]c2ccccc12)C(N)=O [DHE] (H-GLLDLLHLLLEAAGW-NH2) | 0.72 | 1.00 | 11.1 ± 1.91 | 22.7 ± 4.31 | 3.75 ± 0.92 | 2.8 ± 0.14 | 17.2 ± 1.06 | 469 | 58 | 581 | 566 | – | – |
| CC(C)C[C@H](NC(=O)CN)C(=O)N[C@@H](CC(C)C)C(=O)N[C@@H](CCC(=O)O)C(=O)N[C@@H](CC(C)C)C(=O)N[C@@H](CC(C)C)C(=O)N[C@@H](CCC(=O)O)C(=O)N[C@@H](CC(C)C)C(=O)N[C@@H](CC(C)C)C(=O)N[C@@H](CC(C)C)C(=O)N[C@@H](CCC(=O)O)C(=O)N[C@@H](C)C(=O)N[C@@H](C)C(=O)NCC(=O)N[C@@H](Cc1c[nH]c2ccccc12)C(N)=O [EEE] (H-GLLELLELLLEAAGW-NH2) | 4.50 | 1.33 | 50 | – | – | 10.6 ± 3.46 | 78.8 ± 5.3 | 28 | 35 | 346 | 143 | > 25 | no increase in selectivity at low pH |
| CC(C)C[C@H](NC(=O)CN)C(=O)N[C@@H](CC(C)C)C(=O)N[C@@H](CCC(=O)O)C(=O)N[C@@H](CC(C)C)C(=O)N[C@@H](CC(C)C)C(=O)N[C@@H](CCC(=O)O)C(=O)N[C@@H](CC(C)C)C(=O)N[C@@H](CC(C)C)C(=O)N[C@@H](CC(C)C)C(=O)N[C@@H](Cc1c[nH]cn1)C(=O)N[C@@H](C)C(=O)N[C@@H](C)C(=O)NCC(=O)N[C@@H](Cc1c[nH]c2ccccc12)C(N)=O [EEH] (H-GLLELLELLLHAAGW-NH2) | 0.50 | 0.50 | 12.9 ± 0.14 | – | – | 3.6 ± 0.85 | 19.6 ± 3.96 | 168 | 58 | 755 | 738 | > 25 | significantly increased dye leakage from anionic liposomes |
| CC(C)C[C@H](NC(=O)CN)C(=O)N[C@@H](CC(C)C)C(=O)N[C@@H](CCC(=O)O)C(=O)N[C@@H](CC(C)C)C(=O)N[C@@H](CC(C)C)C(=O)N[C@@H](Cc1c[nH]cn1)C(=O)N[C@@H](CC(C)C)C(=O)N[C@@H](CC(C)C)C(=O)N[C@@H](CC(C)C)C(=O)N[C@@H](CCC(=O)O)C(=O)N[C@@H](C)C(=O)N[C@@H](C)C(=O)NCC(=O)N[C@@H](Cc1c[nH]c2ccccc12)C(N)=O [EHE] (H-GLLELLHLLLEAAGW-NH2) | 0.44 | 0.44 | 13 | – | – | 2.55 ± 0.07 | 18.2 ± 1.06 | 384 | 75 | 706 | 952 | > 25 | significantly increased dye leakage from anionic liposomes |
| CC(C)C[C@H](NC(=O)CN)C(=O)N[C@@H](CC(C)C)C(=O)N[C@@H](CCCCN)C(=O)N[C@@H](CC(C)C)C(=O)N[C@@H](CC(C)C)C(=O)N[C@@H](CCC(=O)O)C(=O)N[C@@H](CC(C)C)C(=O)N[C@@H](CC(C)C)C(=O)N[C@@H](CC(C)C)C(=O)N[C@@H](CCC(=O)O)C(=O)N[C@@H](C)C(=O)N[C@@H](C)C(=O)NCC(=O)N[C@@H](Cc1c[nH]c2ccccc12)C(N)=O [KEE] (H-GLLKLLELLLEAAGW-NH2) | 0.20 | 0.20 | 11.1 ± 1.84 | – | – | 2.05 ± 0.21 | 49.4 ± 13.3 | 108 | 97 | 657 | 626 | > 25 | no increase in selectivity at low pH |
| CC(C)C[C@@H](NC(=O)CN)C(=O)N[C@H](CC(C)C)C(=O)N[C@H](CC(=O)O)C(=O)N[C@H](CC(C)C)C(=O)N[C@H](CC(C)C)C(=O)N[C@H](CCC(=O)O)C(=O)N[C@H](CC(C)C)C(=O)N[C@H](CC(C)C)C(=O)N[C@H](CC(C)C)C(=O)N[C@H](CCCCN)C(=O)N[C@H](C)C(=O)N[C@H](C)C(=O)NCC(=O)N[C@H](Cc1c[nH]c2ccccc12)C(N)=O [d-DEK] (H-G[dL][dL][dD][dL][dL][dE][dL][dL][dL][dK][dA][dA]G[dW]-NH2) | – | – | 3.28 ± 0.21 | 0.57 ± 0.01 | 0.44 ± 0.1 | 0.36 | 5.84 ± 0.04 | – | – | – | – | – | – |
